The results in this text go back to US20240334931A1, “NEMATICIDAL COMPOSITION” (ISHIHARA SANGYO KAISHA, LTD., priority 2021, published 2024).

Assay type in all cases: in vivo
For test [1], the system named is southern root-knot nematode (Meloidogyne incognita). Kind of test: Test on effects against southern root-knot nematode: treated contaminated soil, cucumber pot test (Test Example 1 and Comparative Test). More on the design: key: 0: No knot formed on the root at all; 1: Knots formed to a slight degree; 2: Knots formed to a moderate degree; 3: Knots formed to a heavy degree; 4: Knots formed to the heaviest degree. How it is done: The treated soil was put into a pot, three cucumber seeds were sown, and the pot was placed in a greenhouse. Two to three weeks after the sowing of the cucumber seeds, the root knot index was determined based on the degree of formation of root knots shown in Table 5. Each composition containing Compound No. […]-192 or B-196 at a concentration of 400 ppm and the composition containing Compound No. […] [table] […] Root knot index of 2 corresponds to a state where the proportion of healthy roots is 50% or less to the entire roots, and indicates control effects to such an extent that cucumber as a crop plant to be tested cannot healthily grow.

In test [2] the test system is soybean cyst nematode (Heterodera glycines). Kind of test: Test on effects against soybean cyst nematode: treated contaminated soil, soybean pot test (Test Example 3). Also on record: key: 0: No parasitic cyst observed on the roots at all; 1: Parasitic cyst observed to a slight degree; 2: Parasitic cyst observed to a moderate degree; 3: Parasitic cyst observed to a heavy degree; 4: Parasitic cyst observed densely on the entire roots. The settings on record: 10 ml poured to 200 ml contaminated soil, about one month after sowing. Here is the method:
. The treated soil was put into a pot, three soybean seeds were sown, and the pot was placed in a greenhouse. About one month after the sowing of the soybean seeds, the parasite index was determined based on the cyst parasite level on the roots shown in Table 7.

In test [3] the test system is Cobb root-lesion nematode (Pratylenchus penetrans). In words: Test on effects against Cobb root-lesion nematode: treated contaminated soil, burdock pot test (Test Example 2). Also on record: key: 0: No injury; 1: Slight injury; 2: Moderate injury; 3: Heavy injury; 4: Heaviest injury. The following applies: 800 ppm, 10 ml poured to 200 ml contaminated soil, about one month after sowing. How it is done:
. The treated soil was put into a pot, three burdock seeds were sown, and the pot was placed in a greenhouse. About one month after the sowing of the burdock seeds, the injury index was determined based on the root injury level shown in Table 6.

The mark [4] stands for this setting: 400 ppm, 10 ml poured to 200 ml contaminated soil, cucumber, two to three weeks after sowing.
Setting [5] is: Comparative Test, active ingredient concentration 50 ppm, otherwise as Test Example 1 (cucumber).

`CC(C)(C(=NNC=O)c1ccccc1)n1cnc(C(F)(F)F)n1` [A-2]: the results for the root knot index in test [1] (setting [4]) and in test [1] (setting [5]) were 1 and 0, respectively. Also, the parasite index in test [2] (800 ppm) is recorded as 1.
In test [1] (setting [4]), `CC(C)(C(=NNC=O)c1cccc(F)c1)n1ccc(C(F)(F)F)n1` [A-274] registered a root knot index of 1. This compound showed a parasite index in test [2] (800 ppm) of 1.
`CN(C=O)N=C(c1ccccc1)C1(n2cnc(C(F)(F)F)n2)CC1` [B-6] came in with a parasite index in test [2] (800 ppm) of 1.
`CC(C)(C(=NNC=O)c1cccc(Cl)c1)n1cnc(C(F)(F)F)n1` [A-319]: in test [1] (setting [4]), the root knot index worked out at 1. Also, the parasite index in test [2] (800 ppm) is 1.
`O=CNN=C(c1ccccc1)C1(n2ccc(C(F)(F)F)n2)CC1` [B-1, N′-(phenyl(1-(3-trifluoromethyl-1H-pyrazol-1-yl)cyclopropyl)methylene) formhydrazide] gave an injury index in test [3] of 1. Also, the root knot index in test [1] (setting [4]) amounted to 1. In addition, the parasite index in test [2] (800 ppm) is on record as 1.
For `CC(C)(C(=NNC=O)c1cccc(Cl)c1)n1ccc(C(F)(F)F)n1` [A-318], the injury index in test [3] was found to be 1. Further, the root knot index in test [1] (setting [4]) and in test [1] (setting [5]) was 1 in each case. The same compound registered a parasite index in test [2] (800 ppm) of 1.
`COCN(C=O)N=C(c1ccc(F)cc1)C(C)(C)n1ccc(C(F)(F)F)n1` [A-109]: the parasite index in test [2] (800 ppm) is 1.
The compound `CC(C)(C(=NNC=O)c1cccc2c1OC(F)(F)O2)n1cnc(C(F)(F)F)n1` [A-411] came in with a root knot index in test [1] (setting [4]) of 1. This compound registered a parasite index in test [2] (800 ppm) of 1.
Compound `CC(C)(C(=NNC=O)c1ccccc1C(F)(F)F)n1ccc(C(F)(F)F)n1` [A-260] returned a root knot index in test [1] (setting [4]) of 1. The parasite index in test [2] (400 ppm) came to 1.
As to `Cc1ccccc1C(=NNC=O)C1(n2ccc(C(F)(F)F)n2)CC1` [B-196], the root knot index in test [1] (setting [4]) turned out to be 1. In test [2] (800 ppm), this compound came in with a parasite index of 1.
As for `CC(C)(C(=NNC=O)c1ccccc1OC(F)(F)F)n1cnc(C(F)(F)F)n1` [A-271], in test [1] (setting [4]), the root knot index came out at 1. In test [2] (800 ppm), this compound registered a parasite index of 1.
Take `O=CNN=C(c1ccccc1)C1(n2cnc(C(F)(F)F)n2)CC1` (single isomer, unassigned) [B-3]: the root knot index in test [1] (setting [4]) is 1. In addition, in test [2] (800 ppm), the parasite index came to 1.
`Cc1cccc(C(=NNC=O)C(C)(C)n2cnc(C(F)(F)F)n2)c1` [A-323, N′-(2-methyl-1-(3-methylphenyl)-2-(3-trifluoromethyl-1H-triazol-1-yl)propylidene) formhydrazide]: in test [1] ([…], cucumber, two to three weeks after sowing), the root knot index is recorded as 1. This compound also yielded a parasite index in test [2] (800 ppm) of 1.
For the compound `Cc1cccc(C(=NNC=O)C(C)(C)n2ccc(C(F)(F)F)n2)c1` [A-322], the root knot index in test [1] (setting [4]) worked out at 1. Further, in test [2] (800 ppm), the parasite index was 1.
Take `CC(C)(C(=NNC=O)c1cccc(Cl)c1Cl)n1cnc(C(F)(F)F)n1` [A-333]: in test [1] (setting [4]), the root knot index is reported as 1. Besides, the parasite index in test [2] (800 ppm) amounted to 1.
In test [1] (setting [4]), `CC(C)(C(=NNC=O)c1cccc2c1OC(F)(F)O2)n1ccc(C#N)n1` [A-416] had a root knot index of 1. In addition, the parasite index in test [2] (800 ppm) is on record as 1.
For the compound `CC(C)(C(=NNC=O)c1ccc(Cl)cc1)n1ccc(C(F)(F)F)n1` [A-89], the root knot index in test [1] (setting [4]) came out at 1. In test [2] (800 ppm), this compound displayed a parasite index of 1.
In the case of `CC(C)(C(=NNC=O)c1ccccc1)n1ccc(C(F)(F)F)n1` [A-1, N′-(2-methyl-1-phenyl-2-(3-trifluoromethyl-1H-pyrazol-1-yl)propylidene) formhydrazide], the injury index in test [3] worked out at 1. Further, the root knot index in test [1] (setting [4]) and in test [1] (setting [5]) was 1 each time. Also, the parasite index in test [2] (800 ppm) is on record as 1.
`CC(C)(C(=NNC=O)c1cccc(F)c1)n1ccc(Br)n1` [A-279] yielded a root knot index in test [1] (setting [4]) of 1. For the same compound, in test [2] (800 ppm), the parasite index came to 1.
Turning to `O=CNN=C(c1ccc(F)cc1)C1(n2cnc(C(F)(F)F)n2)CC1` (single isomer, unassigned) [B-106], the root knot index in test [1] (setting [4]) was 1. In test [2] (400 ppm), this compound displayed a parasite index of 1.
`CN(C=O)N=C(c1ccc(Cl)cc1)C(C)(C)n1ccc(C(F)(F)F)n1` [A-91] came in with a parasite index in test [2] (800 ppm) of 1.
`CC(C)(C(=NNC=O)c1cc(F)ccc1Cl)n1cnc(C(F)(F)F)n1` [A-352] gave a root knot index in test [1] (setting [4]) of 1. Further, the parasite index in test [2] (800 ppm) came to 1.
For the compound `CC(C)(C(=NNC=O)c1ccc(F)cc1)n1ccc(C(F)(F)F)n1` [A-107], the root knot index in test [1] (setting [4]) amounted to 1. The compound also had a parasite index in test [2] (800 ppm) of 1.
In test [2] (800 ppm), `COCN(C=O)N=C(c1ccccc1)C1(n2cnc(C(F)(F)F)n2)CC1` [B-24] showed a parasite index of 1.
In the case of `COc1cccc(C(=NNC=O)C(C)(C)n2ccc(C(F)(F)F)n2)c1` [A-328], the root knot index in test [1] (setting [4]) turned out to be 1. The compound also showed a parasite index in test [2] (800 ppm) of 1.
